Key:
[1] = test system: human umbilical vein endothelial cells (HUVECs); experiment: Apoptosis of HUVECs (flow cytometry, DNA Ladder, RT-PCR, Western blotting); format: cell-based; settings: 50 μg/ml PBS, 96 hours
Procedure: Human umbilical cord samples (obtained from Beijing Obstetrics & Gynecology Hospital) was digested with 0.1% collagenase I (available from GIBCO BRL company), followed by a centrifugation (1000 rpm, 10 minutes) to collect human umbilical vein endothelial cells (HUVECs). After suspended in 20% FCS/RPMI1640, the cells were transferred into plastic bottles for culture in CO2 incubator (37° C., 5% CO2). Twelve hours later, unattached cells were discarded by changing medium, and then the remaining cells were cultured conventionally with the medium changed every 3 days. The vehicle (PBS) and FpAT (50 μg/ml PBS) were added separately, and the cells were collected at 96 hours. Flow Cytometry: the cells were digested with 0.04% trypsin-EDTA, collected and washed 3 times with PBS; the cells were suspended by adding 200 μl PBS and aspirated gently to avoid formation of cell mass. 800 μl cold absolute alcohol was added, and then the cells was fixed at 4° C. overnight; and after a centrifugation at 1000×g for 5 min at 4° C., and the supernatant were discarded. The cells were washed twice with PBS, re-suspended with 200 μl PBS containing RNaseA at a concentration of 1 mg/ml, and incubated at 37° C. for 30 minutes. PI staining solution (final concentration of 50 μg/ml) was added, and the well mixed cells were subjected to a reaction at 4° C. for 30 minutes in the dark. The detection was performed on a flow cytometer. DNA Ladder analysis: the cells differently treated (PBS and FpAT) were collected by a centrifugation at 1000 rpm for 5 minutes, and the cells were lysed with lysis solution (10 mM Tris-HCl, 5 mM EDTA, 1% Triton-X 100, 10 mM NaCl, 100 μg/ml protease K), and aspirated repeatedly to cut viscous genomic DNA, which theoretically generates DNA fragments in a uniform size of 20 to 30 kb; phenols and chloroform were used to extract, and after precipitated with absolute ethanol, the total DNA were dissolved in TE or water, and treated with Rnase A at 37° C. for 1˜2 hours. Five microliters was taken for an electrophoresis on 1.8% agarose gel. […]

[2] = test system: endothelial cells of mouse aorta; experiment: Growth of primary endothelial cells from mouse aorta segments on Matrigel; format: cell-based, Balb/c mice; settings: 10, 25, 100 μg/ml PBS; 48 hours, 72 hours
Procedure: The Balb/c mice were sacrificed by dislocating the neck and aorta were detached and washed off the blood cells therein with PBS. The cleaned aorta was cut into aorta segments in length of 1 mm, which were planted vertically in 24-well cell culture plate coated with Matrigel gel (BD company); and 10% FCS/RPMI1640 was added, and the plates were placed and cultured in CO2 incubator (37° C., 5% CO2). The vehicle (PBS) and FpAT (10 μg/ml PBS, 25 μg/ml PBS, 100 μg/ml PBS) were added separately, with 3 parallel wells per group, and the cultivation was performed for 48 hours, 72 hours. Then the growth of mouse aorta endothelial cell was observed under microscope.

[3] = test system: human umbilical vein endothelial cells (HUVECs); experiment: Microfilament skeleton of HUVECs by confocal microscope; format: cell-based; settings: 10, 25, 100 μg/ml; 48, 72, 96 hours
Procedure: Human umbilical cord samples (obtained from Beijing Obstetrics & Gynecology Hospital) was digested with 0.1% collagenase I (available from GIBCO BRL company), followed by a centrifugation (1000 rpm, 10 minutes) to collect human umbilical vein endothelial cells (HUVECs). After suspended in 20% FCS/RPMI1640, the cells were transferred into plastic bottles for culture in CO2 incubator (37° C., 5% CO2). Twelve hours later, unattached cells were discarded by changing medium, and then the remaining cells were cultured conventionally with the medium changed every 3 days. The cultured HUVECs were digested with 0.04% trypsin-EDTA, and inoculated into 24-well plate at 2×10^4 cells/well; and the vehicle (PBS) and FpAT (10 μg/ml, 25 μg/ml, 100 μg/ml) were added separately, with 3 parallel wells per group. […] After washing twice with PBS, Hoechst was added to stain nucleus. After washed once with PBS, the slide was mounted with mounting solution, and stored at 4° C. in the dark. The change of cytoskeleton was observed employing a confocal microscope.

H2N-Asp-Ser-Gly-Glu-Gly-Asp-Phe-Leu-Ala-Glu-Gly-Gly-Gly-Val-Arg-COOH (H-DSGEGDFLAEGGGVR-OH; listed as Homo sapiens) [FpAT, fibrinopeptide A truncated, carboxyl terminal 15 amino acids of fibrinopeptide A]
DNA Ladder in total DNA of HUVECs [1]: presence of plenty of DNA Ladder | apoptosis of HUVECs by flow cytometry ([1]; PI staining): presence of an evidence apoptosis peak | effect on cell cycle of HUVECs ([1]; flow cytometry): no remarkable effects on cell cycle | growth of vascular endothelial cell of mouse aorta [2]: can suppress specifically the growth | proliferation, migration and ability to form tubular structure of vascular endothelial cell of mouse aorta [2]: suppress notably | microfilament disassembly in HUVECs [3]: can induce the microfilament disassembly
